Assays:
[1] = system: IL6 and IL8 expression in astrocytes; test: Activation assay, ddPCR of cytokine expression in IL1-β-activated astrocytes; assay type: cell-based, human; conditions: 5 h treatment
Description: Activation assays and ddPCR. HCA or H1-derived astrocytes were treated with vehicle (DMSO) or 20 μM compound and stimulated with IL1-B 10 ng/mL for 5 h. Cells were scraped into RNA-Bee and total RNA was purified using the Direct-zol RNA kit (Zymo Research). RNA concentration was measured using Nanodrop and RNA was reverse transcribed into cDNA using the High Capacity cDNA Reverse Transcriptase Kit (Applied Biosystems). Reaction mixes consisting of TaqMan FAM probe (IL6, IL8, CSNK2A1, CSNK2A2), control TaqMan ACTB-VIC probe (TFS 4326315E), ddPCR Supermix for Probes (Bio-Rad 186-3024), and cDNA were formed into oil droplets using the QX200 Droplet Generator. After amplification (Bio-Rad C1000 Touch Thermal Cycler) according to manufacturer's instructions, the plate was read in the QX200 Droplet Reader.

[2] = system: CK2 Y255; test: Immunofluorescence of CK2 Y255 phosphorylation in nuclei of primary human astrocytes; assay type: cell-based; conditions: 20 μM, 5 h
Description: (§1) Immunotluorescence. […] After treatment, cells were fixed with 4% paraformaldehyde solution for 20 min at room temperature and washed 3× with DPBS for 10 min each. The cells were permeabilized using 5% horse serum and 10% Triton X in DPBS for 15 min at room temperature and blocked with 5% horse serum in PBS for 30 min at room temperature. Cells were incubated with primary antibodies in blocking buffer either overnight at 4° C. or for 2 hours at room temperature. After incubation, cells were washed 3× with PBS, blocked using 5% horse serum in PBS for 30 min at room temperature, and incubated with Cy3 red-labeled or AF488 green-labeled secondary antibodies diluted in blocking buffer for 1 hour at room temperature. The cells were washed once with PBS for 10 min, then counter-stained with DAPI. The cells were washed 3× with PBS and mounted with glass coverslips and Immu-Mount solution. Images were obtained with the Zeiss fluorescent microscope. […]

[3] = system: AKT pS473; test: Immunofluorescence of AKT pS473 in IL1β-stimulated primary astrocytes; assay type: cell-based; conditions: IL1-β for 5 h
Description: as §1

[4] = system: CK2; test: CK2 kinase assay in postmortem brain lysates (Csox peptide); assay type: biochemical, human; conditions: pretreatment with 20 μM for 30 min
Description: Kinase assays. In vitro kinase assays were run using the Cysteine-Sox-Kinase Sensor AQT0696, 96 assay Kit (AssayQuant Tech, CSKS-AQT0696). Compound stocks (1.25×) at concentrations in a 2-fold dilution series were prepared in kinase reaction mixes and added in duplicate to a 384-well white-bottom NBS plates (Corning X) at 20 μL/well. Then, 5 μL active recombinant human CK2a1 kinase (Thermo Fisher PV3248, 5× in Kinase Dilution Buffer) was added to each well, quickly mixed by rotation, and incubated for 5 h at 30° C., with fluorescence readings taken every 3 min (excitation λ=365 nm, emission λ=495-505 nm) on a Promega GloMax Discover Microplate Reader. The final reaction conditions contained 10 μM AQT0696 Csox peptide, 1 mM ATP, 54 mM HEPES pH 7.5, 1.2 mM DTT, 0.012% Brij-35, 0.52 mM EGTA, 1% glycerol, 0.2 mg/mL BSA, 10 mM MgCl2, and 20 nM CK2a1. Slopes corresponding to linear reaction rates were obtained for each compound concentration (RFU/sec), normalized to DMSO controls, and IC50 values were determined by applying the dose response non-linear regression model in GraphPad Prism. […] After sonication and clarification, protein concentration was measured by BCA Assay. CK2 activity was measured as described above, except lysates were used instead of purified kinase at 2 μL/well (˜0.3-0.4 ug protein per reaction). […]

[5] = system: 468 human kinases; conditions: testing concentration of 1 μM; cited from earlier work
[6] = system: IκB S32; test: Immunoblot of IκB S32 in IL1-β-stimulated astrocytes; assay type: cell-based, human; conditions: after 5 hours
Description: Western blotting. […] Cells were dissociated with 1:1 Accutase:papain for 3 min at rt, pelleted for 5 min at 800 g, and washed twice with cold DPBS. Pellets were lysed with RIPA buffer (Sigma R0278) supplemented with Halt protease inhibitor cocktail (Thermo Fisher 78445) and clarified by centrifugation (16,000 g, 10 min, 4° C.). Protein concentration was determined by BCA assay (Thermo Fisher). Proteins were denatured in 1×LDS Buffer and 2.5% beta-mercaptoethanol (X) for 10 min at 70° C., separated on Bolt 4-12% Bis-Tris Plus polyacrylamide gels (Thermo Fisher), transferred to PVDF membranes using the iBlot 2 Dry Blotting System, and blocked with 0.1% casein-PBS (Bio-Rad) for 1 h at room temperature. The blots were incubated with primary antibodies overnight at 4° C. in PBS containing 0.1% casein and 0.2% Tween-20. Antibodies used: rabbit anti-CK2a1 (Bethyl #, 1:5000), rabbit anti-CK2a2 (Bethyl #, 1:5000), mouse anti-GAPDH (Fitzgerald #10-1501, 1:20,000), mouse anti-NF-KB (CST #6956S, 1:1000), pNF-KB S529 (TFS #14-9864-82, 1:100), LC3B (CST 2775, 1:1000), ACO2 (CST 6922, 1:1000), rabbit HMGB1 (Novus #NB1002322, 1:1000), mouse anti-IκBα (CST #4814S, 1:1000), mouse anti-IκBa pS32 (SC #8404, 1:500), HA-tag (Bethyl #A190-108A, 1:20000). […] The blots were imaged using the Odyssey CLx imaging system and blots were analyzed on the ImageStudio software (LI-COR). […]

[7] = system: NF-κB pS529; test: Immunofluorescence of NF-κB and NF-κB pS529 in activated astrocytes; assay type: cell-based, human
Description: Immunotluorescence. […] After treatment, cells were fixed with 4% paraformaldehyde solution for 20 min at room temperature and washed 3× with DPBS for 10 min each. The cells were permeabilized using 5% horse serum and 10% Triton X in DPBS for 15 min at room temperature and blocked with 5% horse serum in PBS for 30 min at room temperature. Cells were incubated with primary antibodies in blocking buffer either overnight at 4° C. or for 2 hours at room temperature. After incubation, cells were washed 3× with PBS, blocked using 5% horse serum in PBS for 30 min at room temperature, and incubated with Cy3 red-labeled or AF488 green-labeled secondary antibodies diluted in blocking buffer for 1 hour at room temperature. The cells were washed once with PBS for 10 min, then counter-stained with DAPI. The cells were washed 3× with PBS and mounted with glass coverslips and Immu-Mount solution. Images were obtained with the Zeiss fluorescent microscope. The following primary antibodies were used: rabbit anti-NF-κB (1:400; CST), mouse anti-phospho NF-κB S529 (20 ug/ml; Thermo Fisher), rabbit anti-CK2A1 (1:500; Bethyl), mouse anti-IKb alpha (1:400; CST), mouse anti-phospho IKb alpha (1:50; Santa Cruz), rabbit anti-phospho CK2A1 (1:25; Thermo Fisher), rabbit anti-phospho Cdc37 (1:50; Novus), mouse anti-phospho NF-κB S529 (1:25; R&D), rabbit anti-Cdc37 (1:100; CST), mouse anti-SQSTM1 (1:50; Santa Cruz), anti rabbit-phospho NF-κB S536 (1:1600; CST), anti rabbit-Akt (pan) (1:400; CST), anti mouse-phospho Akt S473 (1:500; Sigma).
To investigate the potential effects of CK2 activity on NF-κB, NF-κB and NF-κB pS529 were measured by immunofluorescence in activated astrocytes. […] At this timepoint, NF-κB pS529 levels were similar across all treatments, possibly as a result of slower turnover by pNF-κB species.

[8] = system: CK2; test: Target engagement in mouse brain homogenates (Cyclex CK2 ELISA kit); assay type: in vivo; conditions: single dose 25.6 mg/kg i.p., in comparison to FNH79
Description: Animals. All animal procedures were approved by the Institutional Animal Care and Use Committee of The Salk Institute for Biological Studies. Wildtype male C57BL/6 mice (2-3 months old) were housed under standard 12-h light/dark cycles with free access to food and water. IN2.2 or vehicle (3% hydroxypropylmethylcellulose, HPMC) was injected as a single dose (25.6 mg/kg) i.p. mice (n=6 and n=3 controls). Blood was collected at t=0, 0.5, 1, 2, 4, 8, 24 via retro-orbital bleeding and allowed to clot at room temperature to separate serum and clarified. At the final timepoint, mice were anesthetized with ketamine and tissues were harvested. Drug concentrations in serum and tissues were determined by LC/MS-MS. Target engagement in the brain was determined in brain homogenates from treated animals using the Cyclex CK2 ELISA kit. […] Tolerability was assessed mice (mean±s.d., n=5) by injecting with JKT56/IN3.2 daily at 20 mg/kg and monitoring closely for any signs of toxicity based on body weight changes and behavior/appearance (e.g. signs of distress, rough coat, squinty eyes, hunched posture).
IN2.2 or vehicle (3% wt/wt hydroxpropymethylcellulose aqueous solution) was injected as a single dose (25.6 mg/kg) i.p. in 2-3 month old C57Bl/6Nhsd mice (n=6 and n=3 controls). […] Drug concentrations in serum and tissues were determined by LC/MS-MS. […]

[9] = system: BBB organoids; test: BBB permeability and anti-inflammatory activity in BBB organoids; assay type: cell-based; conditions: 6.7 μM, 3 days, compared to FNH79 at 20 μM
Description: BBB permeability of IN2.2 was also determined in BBB organoids (Cho et al., Nat Commun 2017, 8:15623). Pools of -50 organoids were treated for 3 days with IL1-β and DMSO or compounds (FNH79 at 20 μM, IN2.2 at 6.7 μM) and collected in RNA-Bee reagent (Amsbio). qPCR for IL6 and IL8 expression was performed (mean±s.d., n=3).

| Compound | expression of IL6 and IL8 in IL1-β-activated astrocytes [1] | pCK2/CK2 in nuclei [2] | AKT pS473 levels [3] | CK2-specific fluorescence of phosphorylated Csox peptide in brain lysates [4] | number of other kinases inhibited >90% [5] | IκB S32 levels [6] | IL1-β-induced increase of NF-κB nuclear intensity ([7]; after 1 h) | pNF-κB nuclear intensity relative to total NF-κB ([7]; after 5 hours) | target engagement in brain [8] | IL6 and IL8 expression ([9]; IL1-β) | BBB permeability [9] |
| --- | --- | --- | --- | --- | --- | --- | --- | --- | --- | --- | --- |
| O=C(O)c1ccc2c(c1)nc(Nc1cccc(Cl)c1)c1ccncc12 [CX4945] | successfully blocked | reduced | reduced | blocked | 28 | decreased | blocked | reduced | – | – | – |
| COc1cc(-c2cc(=O)c3cc(Br)cc(Br)c3o2)ncc1O [IN2.2] | – | – | – | – | – | – | – | – | superior target engagement | reduction | superior permeability |

From patent publication US20240197890A1, “FLAVONE DERIVATIVES AND USES IN TARGETING CK2-MEDIATED DISEASES AND CONDITIONS” (Salk Institute for Biological Studies, priority 2020, published 2024)
